# Test results from paper PMC4013293 (Bioorganic & medicinal chemistry, 2013).
# Target: ERβ (Homo sapiens, UniProt Q92731)
# Test: Cell-based ERβ luciferase reporter luminescence assay, agonist mode
# Conditions: read-out: ERβ agonist IC50; luciferase reporter cells, 22 h, duplicate
# Chain of ERβ (Q92731 whole entry): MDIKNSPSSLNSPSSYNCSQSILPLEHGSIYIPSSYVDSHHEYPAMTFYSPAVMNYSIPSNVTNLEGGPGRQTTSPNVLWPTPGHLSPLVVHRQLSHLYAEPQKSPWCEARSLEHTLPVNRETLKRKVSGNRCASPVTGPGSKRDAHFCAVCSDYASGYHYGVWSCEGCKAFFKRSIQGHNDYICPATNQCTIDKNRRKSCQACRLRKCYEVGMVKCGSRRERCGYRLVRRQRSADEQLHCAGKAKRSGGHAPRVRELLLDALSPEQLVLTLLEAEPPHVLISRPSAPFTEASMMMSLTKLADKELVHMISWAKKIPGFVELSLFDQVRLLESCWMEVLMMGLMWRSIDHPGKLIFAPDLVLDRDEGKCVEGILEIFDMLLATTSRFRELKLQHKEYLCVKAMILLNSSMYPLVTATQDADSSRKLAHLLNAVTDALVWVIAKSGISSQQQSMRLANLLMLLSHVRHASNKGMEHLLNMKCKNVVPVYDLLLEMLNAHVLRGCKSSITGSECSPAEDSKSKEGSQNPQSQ
row,IC50,Compound
1,5.4 ± 0.3 nM,"OC[C@H]1CCC[C@@H](c2ccc(O)cc2)CC1 (relative stereo) [Compound 18, cis-1-Hydroxymethyl-4-(4′-hydroxyphenyl)-cycloheptane]"

# Target: T1, human ERα (Homo sapiens, UniProt P03372)
# T1 sequence (P03372 1-595): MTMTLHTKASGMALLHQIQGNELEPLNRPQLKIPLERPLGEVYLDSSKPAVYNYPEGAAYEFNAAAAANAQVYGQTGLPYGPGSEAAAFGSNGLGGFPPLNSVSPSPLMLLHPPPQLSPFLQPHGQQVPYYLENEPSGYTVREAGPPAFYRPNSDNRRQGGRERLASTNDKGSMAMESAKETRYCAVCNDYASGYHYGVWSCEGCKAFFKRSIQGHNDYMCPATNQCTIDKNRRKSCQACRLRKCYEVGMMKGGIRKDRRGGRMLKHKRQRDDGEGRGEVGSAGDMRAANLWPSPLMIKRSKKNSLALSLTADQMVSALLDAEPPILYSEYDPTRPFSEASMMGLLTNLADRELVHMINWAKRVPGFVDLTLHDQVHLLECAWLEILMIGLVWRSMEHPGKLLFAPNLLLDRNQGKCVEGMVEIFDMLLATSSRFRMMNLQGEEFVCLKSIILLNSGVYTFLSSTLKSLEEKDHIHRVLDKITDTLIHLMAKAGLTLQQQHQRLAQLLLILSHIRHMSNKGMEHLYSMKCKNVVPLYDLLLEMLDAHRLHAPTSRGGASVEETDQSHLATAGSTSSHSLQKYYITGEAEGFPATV
# Test: Fluorescence polarization displacement assay with FITC-estradiol
# Type: binding
# Conditions: fluorescence polarization screen of twelve compounds
row,Compound,Affinity for ERα at concentrations as high as 1 μM (in words)
1,"OC[C@H]1CCC[C@@H](c2ccc(O)cc2)CC1 (relative stereo) [Compound 18, cis-1-Hydroxymethyl-4-(4′-hydroxyphenyl)-cycloheptane]",significant affinity
2,"C[C@@H](CCO)C1=CC[C@H]2[C@@H]3CCc4cc(O)ccc4[C@H]3CC[C@]12C [Compound 11, (20S) 3-Hydroxy-19,24-Dinorchola-1,3,5(10),16-tetraen-23-ol]",significant affinity
3,"CC1C[C@H](C)C2(CC[C@H]3[C@@H]4CCc5cc(O)ccc5[C@H]4CC[C@@]32C)O1 (stereo partly drawn) [Compound 13, 17,23-Epoxy-3-hydroxy-19-norchola-1,3,5(10)-triene]",significant affinity
4,"CCCOC(=O)C1CC[C@H]2[C@@H]3CCc4cc(O)ccc4[C@H]3CC[C@]12C (stereo partly drawn) [Compound 4, n-Propyl 3-hydroxyestra-1,3,5(10)-triene-17-carboxylate]",significant affinity
5,"CC[C@H](C)C1=CC[C@H]2[C@@H]3CCc4cc(O)ccc4[C@H]3CC[C@]12C [Compound 7, (20S) 3-Hydroxy-19,24-dinorchola-1,3,5(10),16-tetraene]",significant affinity
